We go through 19 molecules from PubChem BioAssay AID264 (DTP/NCI, 2004).

SMILES strings stand for the structures. Several values for one entry are separate records, joined by “and”; a condition that tells them apart may be missing. Identical values can stand only once. Results filed as inconclusive are left out.

The assay has as its system nude mice, LX-1 lung xenograft intrarenal, tumor weight T/C. Nature of the assay: NCI In Vivo Anticancer Drug Screen. Data for tumor model Human Lung LX-1 Xenograft (intrarenal inoculation) in NU/NU Swiss (nude) mice. Conditions: endpoint: mean tumor weight change, higher = larger tumour. The essentials:
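Compound-treated mice carrying transplanted tumors were compared with vehicle-treated controls. Tumor size was the measured end point, and the value is the treated-group measurement divided by the control-group measurement (T/C).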
A general note: A xenograft is tissue or cells of one species grown in another, often human tumour cells in immunodeficient mice.

Setting [1] is: dose: 25.0 mg/kg/injection, schedule: Q04DX003 (sc), vehicle: Klucel (hydroxypropylcellulose) (HPC).
Setting [2] is: dose: 20.0 mg/kg/injection, schedule: Q01DX010 (sc), vehicle: saline.
Setting [3] is: dose: 40.0 mg/kg/injection, schedule: Q01DX010 (sc), vehicle: saline.
[4] abbreviates: dose: 150.0 mg/kg/injection, schedule: Q04DX003 (sc), vehicle: saline with Tween-80.
[5] abbreviates: dose: 300.0 mg/kg/injection, schedule: Q04DX003 (sc), vehicle: saline with Tween-80.
Where [6] appears, read: dose: 600.0 mg/kg/injection, schedule: Q04DX003 (sc), vehicle: saline with Tween-80.
Where [7] appears, read: dose: 2400.0 mg/kg/injection, schedule: Q04DX003 (sc), vehicle: saline with Tween-80.
Where [8] appears, read: dose: 1200.0 mg/kg/injection, schedule: Q04DX003 (sc), vehicle: saline with Tween-80.

As for `N#C[Se-].c1ccc([Te+](c2ccccc2)c2ccccc2)cc1`, the T/C runs as follows: (dose: 6.25 mg/kg/injection, schedule: Q04DX003 (sc), vehicle: Klucel (hydroxypropylcellulose) (HPC)) 75 % of control; under setting [1], 82 % of control.
`OCCOCCN1CCN(CCCN2c3ccccc3Sc3ccc(C(F)(F)F)cc32)CC1`: the T/C is, setting by setting: (dose: 3.0 mg/kg/injection, schedule: Q01DX010 (sc), vehicle: saline) 81 % of control; (dose: 12.0 mg/kg/injection, schedule: Q01DX010 (sc), vehicle: saline) 92 % of control and 111 % of control; (dose: 24.0 mg/kg/injection, schedule: Q01DX010 (sc), vehicle: saline) 52 % of control.
Consider `O=c1[nH]c2c(ccc3cnccc32)c2c1CCC2`, for which the T/C is 87 % of control (dose: 100.0 mg/kg/injection, schedule: Q04DX003 (sc), vehicle: suspension in saline); 87 % of control (dose: 200.0 mg/kg/injection, schedule: Q04DX003 (sc), vehicle: suspension in saline); 57 % of control (dose: 400.0 mg/kg/injection, schedule: Q04DX003 (sc), vehicle: suspension in saline); 109 % of control (dose: 800.0 mg/kg/injection, schedule: Q04DX003 (sc), vehicle: suspension in saline).
As to `c1cc[c]([Sn][c]2ccccc2)cc1`, the T/C was 78 % of control (dose: 10.0 mg/kg/injection, schedule: Q01DX010 (sc), vehicle: saline); 54 % of control under setting [2]; 81 % of control under setting [3].
`O=S1(=O)C=C(c2ccccc2)C(c2ccccc2)=C1`: the T/C runs as follows: (dose: 75.0 mg/kg/injection, schedule: Q04DX003 (sc), vehicle: saline with Tween-80) 59 % of control; under setting [4], 81 % of control; under setting [5], 59 % of control; under setting [6], 71 % of control.
Regarding `Cc1cc(N/N=C/c2ccccn2)nc2ccccc12`, the T/C (dose: 150.0 mg/kg/injection, schedule: Q04DX003 (sc), vehicle: Klucel (hydroxypropylcellulose) (HPC)) is 89 % of control; the T/C (dose: 300.0 mg/kg/injection, schedule: Q04DX003 (sc), vehicle: Klucel (hydroxypropylcellulose) (HPC)) was 103 % of control; the T/C (dose: 600.0 mg/kg/injection, schedule: Q04DX003 (sc), vehicle: Klucel (hydroxypropylcellulose) (HPC)) was 115 % of control; the T/C (dose: 1200.0 mg/kg/injection, schedule: Q04DX003 (sc), vehicle: Klucel (hydroxypropylcellulose) (HPC)) is 98 % of control.
`NC(Cc1ccc(N(CCCl)CCCl)cc1)C(=O)O` (stereo not given): the T/C is 75 % of control (dose: 2.5 mg/kg/injection, schedule: Q04DX003 (sc), vehicle: Klucel (hydroxypropylcellulose) (HPC)); 105 % of control (dose: 5.0 mg/kg/injection, schedule: Q04DX003 (sc), vehicle: Klucel (hydroxypropylcellulose) (HPC)); 22 % of control (dose: 40.0 mg/kg/injection, schedule: Q04DX003 (sc), vehicle: Klucel (hydroxypropylcellulose) (HPC)).
Take `CC(=O)Nc1ccc(O)c(O)c1`: the T/C is 154 % of control under setting [5], 103 % of control under setting [6] and 51 % of control under setting [7].
On to `CCCNC1=C(C)C(=O)C2=C(C1=O)[C@H](COC(N)=O)[C@]1(OC)[C@@H]3N[C@@H]3CN21`, for which the T/C is, setting by setting: (dose: 3.0 mg/kg/injection, schedule: Q04DX003 (sc), vehicle: suspension in saline) 32 % of control; (dose: 24.0 mg/kg/injection, schedule: Q04DX003 (sc), vehicle: suspension in saline) 5 % of control and 17 % of control and 28 % of control.
Consider `C/C=C/c1cc2c(c(=O)o1)C(=O)[C@@H](O)[C@H](C)O2`, for which the T/C reads like this: (dose: 25.0 mg/kg/injection, schedule: Q04DX003 (sc), vehicle: saline with Tween-80) 92 % of control; (dose: 50.0 mg/kg/injection, schedule: Q04DX003 (sc), vehicle: saline with Tween-80) 95 % of control; (dose: 100.0 mg/kg/injection, schedule: Q04DX003 (sc), vehicle: saline with Tween-80) 75 % of control and 97 % of control; (dose: 200.0 mg/kg/injection, schedule: Q04DX003 (sc), vehicle: saline with Tween-80) 82 % of control and 87 % of control.
Consider `O=c1[nH]cc(F)c(=O)[nH]1`, for which the T/C was 107 % of control (dose: 5.0 mg/kg/injection, schedule: Q01DX010 (sc), vehicle: saline); 56 % of control under setting [2]; 25 % of control under setting [3].
`COCCCNC1=C(C#N)C(=O)NC(c2cccc([N+](=O)[O-])c2)S1` (stereo not given): the T/C reads like this: under setting [5], 109 % of control; under setting [6], 78 % of control; under setting [8], 124 % of control; under setting [7], 68 % of control.
With `C1CCC2OCCOCCOC3CCCCC3OCCOCCOC2C1` (stereo not given), the T/C by setting is: (dose: 9.38 mg/kg/injection, schedule: Q04DX003 (sc), vehicle: Klucel (hydroxypropylcellulose) (HPC)) 170 % of control; (dose: 18.75 mg/kg/injection, schedule: Q04DX003 (sc), vehicle: Klucel (hydroxypropylcellulose) (HPC)) 159 % of control.
On to `CC(C)CCCCCCCCCCCCC(=O)NCC(=O)NC1C(C)OC(Nc2ncnc3nc[nH]c23)C(O)C1O` (stereo not given), for which the T/C by setting is: (dose: 4.0 mg/kg/injection, schedule: Q01DX010 (sc), vehicle: distilled water + Tween-80) 31 % of control and 33 % of control; (dose: 8.0 mg/kg/injection, schedule: Q01DX010 (sc), vehicle: distilled water + Tween-80) 24 % of control; (dose: 32.0 mg/kg/injection, schedule: Q01DX010 (sc), vehicle: distilled water + Tween-80) 28 % of control.
On to `C/C(=N\N=C(/[Se])N1CC2CCC(CC2)C1)c1ccccn1`, for which the T/C reads like this: (dose: 12.5 mg/kg/injection, schedule: Q04DX003 (sc), vehicle: Klucel (hydroxypropylcellulose) (HPC)) 100 % of control; under setting [1], 79 % of control; (dose: 50.0 mg/kg/injection, schedule: Q04DX003 (sc), vehicle: Klucel (hydroxypropylcellulose) (HPC)) 85 % of control; (dose: 100.0 mg/kg/injection, schedule: Q04DX003 (sc), vehicle: Klucel (hydroxypropylcellulose) (HPC)) 253 % of control.
Take `Nc1ncnc2c1ncn2C1OC(CO)C(O)C1O` (stereo not given): the T/C runs as follows: (dose: 25.0 mg/kg/injection, schedule: Q01DX010 (sc), vehicle: saline) 156 % of control; (dose: 50.0 mg/kg/injection, schedule: Q01DX010 (sc), vehicle: saline) 97 % of control; (dose: 200.0 mg/kg/injection, schedule: Q04DX003 (sc), vehicle: saline) 102 % of control; (dose: 400.0 mg/kg/injection, schedule: Q04DX003 (sc), vehicle: saline) 20 % of control; (dose: 800.0 mg/kg/injection, schedule: Q04DX003 (sc), vehicle: saline) 117 % of control; (dose: 1600.0 mg/kg/injection, schedule: Q04DX003 (sc), vehicle: saline) 70 % of control.
As to `O=S(=O)(c1ccccc1)N1CN2CCN(C2)C1`, the T/C under setting [4] is 195 % of control, the T/C under setting [6] is 106 % of control and the T/C under setting [8] was 156 % of control.
For the molecule `CO[C@H](C(=O)[C@@H](O)[C@@H](C)O)[C@@H]1Cc2cc3cc(OC4CC(OC5CC(O)C(O)C(C)O5)C(O)C(C)O4)c(C)c(O)c3c(O)c2C(=O)[C@H]1OC1CC(OC2CC(OC3CC(C)(O)C(O)C(C)O3)C(O)C(C)O2)C(O)C(C)O1` (stereo not given in full), the T/C (dose: 0.25 mg/kg/injection, schedule: Q01DX010 (sc), vehicle: saline) was 120 % of control; the T/C (dose: 0.25 mg/kg/injection, schedule: Q04DX003 (sc), vehicle: saline) is 76 % of control; the T/C (dose: 0.5 mg/kg/injection, schedule: Q04DX003 (sc), vehicle: saline) was 87 % of control; the T/C (dose: 0.75 mg/kg/injection, schedule: Q04DX003 (sc), vehicle: saline) is 101 % of control; the T/C (dose: 1.0 mg/kg/injection, schedule: Q04DX003 (sc), vehicle: saline) was 96 % of control; the T/C (dose: 1.5 mg/kg/injection, schedule: Q04DX003 (sc), vehicle: saline) is 78 % of control. For the same molecule, the T/C by setting is: (dose: 2.0 mg/kg/injection, schedule: Q01DX010 (sc), vehicle: saline) -51 % of control; (dose: 2.0 mg/kg/injection, schedule: Q04DX003 (sc), vehicle: saline) 20 % of control; (dose: 3.0 mg/kg/injection, schedule: Q04DX003 (sc), vehicle: saline) 40 % of control.
Turning to `CN(C)c1ccc(C(=C2C=CC(=[N+](C)C)C=C2)c2ccc(N(C)C)cc2)cc1` (tested in a mixture with another compound), the T/C (dose: 7.5 mg/kg/injection, schedule: Q04DX003 (sc), vehicle: saline with Tween-80) was 76 % of control; the T/C (dose: 15.0 mg/kg/injection, schedule: Q04DX003 (sc), vehicle: saline with Tween-80) was 59 % of control; the T/C (dose: 30.0 mg/kg/injection, schedule: Q04DX003 (sc), vehicle: saline with Tween-80) is 98 % of control; the T/C (dose: 60.0 mg/kg/injection, schedule: Q04DX003 (sc), vehicle: saline with Tween-80) was 65 % of control.
